# PMC4452638, “Synthesis and preclinical evaluation of DOTAGA-conjugated PSMA ligands for functional imaging and endoradiotherapy of prostate cancer” (EJNMMI Research, 2014)
# Tests used:
# [1] = In vivo metabolite analysis by radio-HPLC; settings: CD-1 nu/nu mice, 0.5 h p.i.
# Description: ^177Lu-10 and ^177Lu-11 were incubated in 80 μL of human serum (37°C) and 80 μL 0.4 M DTPA solution (RT), respectively and after 1, 24 and 48 h, the stability was determined by TLC analysis. The ^68Ga-labelled tracers (40 to 45 MBq) were injected into the tail vein of CD-1 nu/nu mice. The animals were sacrificed after 30 min, and urine, blood and kidney samples were taken. The kidney was frozen in liquid nitrogen, homogenized with a ball mill and extracted with 0.2 to 1 mL PBS containing 200 nmol 2-(phosphonomethyl)pentane-1,5-dioic acid (PMPA). The suspension was first centrifuged (15,000 g), and after ultrafiltration, the extracts were analysed by RP-HPLC. The blood samples were centrifuged to separate the plasma from the blood cells. Plasma proteins were removed by precipitation with acetonitrile (10 min, 4°C) and subsequent centrifugation and ultrafiltration. The blood extract was also analysed by RP-HPLC.
# To investigate the influence of the amino acid composition of the spacer (KFF vs kff) on the metabolic stability in vivo, tissue homogenates and body fluids of mice injected with ^68Ga-11 and ^68Ga-12 were analysed by radio-HPLC. Extraction efficiencies from the blood and from the kidney were 56% and 43% for ^68Ga-11 and 61% and 62% for ^68Ga-12, respectively.
# [2] = Determination of lipophilicity (shake flask, n-octanol/PBS); type: physicochemical; settings: n-octanol/PBS; listed for 11/12 but determined for the FFK analogue 11 only (footnote a)
# Description: To a solution of 0.5 to 1 MBq of radiolabelled peptide in 500 μl of phosphate-buffered saline (PBS, pH 7.4), 500 μl of n-octanol was added (n = 6). Vials were vortexed vigorously for 3 min. To achieve quantitative phase separation, the vials were centrifuged at 6,000 g for 5 min in a Biofuge 15 (Heraeus Sepatech, Osterode, Germany). The activity concentrations in 100 μl-samples of both the aqueous and the organic phase were measured in a γ-counter. Both the partition coefficient P(o/w), which is defined as the molar concentration ratio of a single species A between n-octanol and water at equilibrium, and logP(o/w), which is an important parameter used to characterize lipophilicity of a compound, were calculated.
# The partition coefficient logP between n-octanol and PBS was determined for the compounds listed in Table 3 using the shake flask method. All compounds are highly hydrophilic, with the DOTAGA compounds being up to one order of magnitude more hydrophilic than the corresponding DOTA analogues. Amongst all compounds tested, [^68Ga]HBED-CC-Ahx-KuE was the most hydrophilic compound.
# LNCaP tumour xenograft = experiment: Biodistribution in LNCaP-tumour-bearing mice; type: in vivo; settings: LNCaP-tumour bearing CD-1 nu/nu mice, 1 h p.i.
# Description: All animal experiments were conducted in accordance with general animal welfare regulations in Germany (Deutsches Tierschutzgesetz, approval #55.2-1-54-2532-71-13). The prostate cancer cell line LNCaP was suspended 1/1 in serum-free medium and Matrigel (BD Biosciences, Germany) and approximately 10^7 cells in 200 μL were inoculated subcutaneously on the right shoulder of 6 to 8 weeks old CD-1 nu/nu mice (Charles River Laboratories). Tumours were grown for 2 to 4 weeks (males) and 4 to 6 weeks (females) to reach 4 to 8 mm in diameter.
# Biodistribution: The ^68Ga-labelled PSMA ligands (approximately 7 to 15 MBq, 0.1 to 0.2 nmol) were injected into the tail vein of isoflurane anesthetized animals. The organ distribution was examined 1 h p.i. and quantified in a γ-counter.
# A comparison of the biodistribution of compounds ^68Ga-11, ^68Ga-12 and the reference [^68Ga]HBED-CC-Ahx-KuE in LNCaP-tumour-bearing CD-1 nu/nu mice (1 h p.i.) is shown in Figure 7.
# [3] = test system: PSMA-expressing LNCaP cells; experiment: Internalization studies / cell binding in LNCaP cells; type: cell-based, human; settings: 68Ga compounds, c = 0.2 nM, 37°C, 1 h, 125,000 cells/well, corrected for unspecific binding
# Description: Cell culture: PSMA^+ LNCaP cells (CLS: 300265) were grown in DMEM/Nutrition Mix F-12 with Glutamax-I (1:1) (Invitrogen, Life Technologies, Darmstadt, Germany) supplemented with 10% FCS. Cultures were maintained at 37°C in a 5% CO2/humidified air atmosphere. One day prior to the experiment, cells were harvested using Trypsin/EDTA (0.05% and 0.02%) in PBS, centrifuged and resuspended with culture medium. For cell counting, a Countesse automated cell counter (Invitrogen, Carlsbad, USA) was used. All in vitro binding and internalization studies were performed using live cells seeded 1 day prior to the experiment. For IC50 determination, 150,000 cells/mL were transferred to 24-well plates (1 mL/well), and for internalization studies, 125,000 cells/mL were transferred into PLL-coated 24-well plates.
# Internalization studies: The culture medium was removed, and the cells were washed once with 500 μL DMEM-F12 (5% BSA) before being left to equilibrate in 200 μL DMEM-F12 (5% BSA) at 37°C for a minimum of 15 min. Then, 25 μL (per well) of either DMEM-F12 (5% BSA) or of a 100-μM PMPA solution (blocking) was added, followed by the addition of 25 μL of ^68Ga/^177Lu-labelled PSMA ligand. The final radioligand concentration was 0.2/0.5 nM in all internalization assays. To determine internalization kinetics, cells were then incubated at 37°C for 5, 15, 30 and 60 min, respectively. Experiments were carried out in triplicate for each time point (control and blocking). Incubation was terminated by placing the plate on ice for approximately 1 min and by subsequent removal of the incubation medium. Cells were thoroughly rinsed with 250 μL of PBS. The wash medium was combined with the supernatant of the previous step. This fraction represents the amount of free radioligand. To remove receptor surface bound radioactivity, the cells were then incubated for 10 min with 250 μL of ice cold PMPA solution (10 μM in PBS). After removal of the supernatant, the cells were thoroughly rinsed with another 250 μL of ice cold PBS. Both fractions were combined. The internalized activity was released by incubation with 250 μL of 1 N NaOH, transferred to vials and combined with 250 μL of 1 N NaOH used for rinsing the wells. Quantification of the amount of free, PMPA-releasable and internalized activity was performed in a γ-counter.
# The cellular uptake and internalization kinetics of the different ^68Ga- and ^177Lu-labelled PSMA ligands was determined using PSMA-expressing LNCaP cells. In the case of the ^68Ga-labelled compounds, the final peptide concentration in the assays was 0.2 nM. […] All internalization studies were accompanied by reference studies using ([^125I]I-BA)KuE (c = 0.2 nM). This experimental setup allows data normalization and eliminates the influence of cell count and cell viability on absolute cellular tracer uptake. […] Furthermore, to be able to discriminate between total cellular activity (sum of membrane associated and internalized activity) and internalized activity, all incubations were followed by a washing step with 10 μM PMPA at 4°C to remove specifically cell-surface bound radioligand by displacement.
substance,measurement,setting,value
[^68Ga]DOTAGA-ffk(Sub-KuE) [^68Ga-12],Intact tracer in blood,[1],100%
same,log P (o/w),[2],−3.6 ± 0.1
same,Kidney accumulation,LNCaP tumour xenograft,96 ± 45 % ID/g
same,Tracer uptake into liver,LNCaP tumour xenograft,0.2 ± 0.04 % ID/g
same,Tracer uptake into lung,LNCaP tumour xenograft,1.1 ± 0.3 % ID/g
same,Tracer uptake into pancreas,LNCaP tumour xenograft,0.4 ± 0.1 % ID/g
same,Tracer uptake into spleen,LNCaP tumour xenograft,5.5 ± 0.2 % ID/g
same,Tumour-to-blood ratio,LNCaP tumour xenograft,17.0 ± 0.5
same,Tumour-to-skeletal muscle ratio,LNCaP tumour xenograft,19.8 ± 0.7
same,Uptake in gastrointestinal tract,LNCaP tumour xenograft,< 0.5 % ID/g
same,Uptake into LNCaP tumour xenograft,LNCaP tumour xenograft,5.2 ± 1.2 % ID/g
same,Internalization (1 h) in % of ([125I]I-BA)KuE,[3],42.5 ± 1.7%
